Measurements taken from paper PMC7728077, “Double-Headed Cationic Lipopeptides: An Emerging Class of Antimicrobials” (International Journal of Molecular Sciences, 2020).
In brackets after ≈: the same amount, converted by molar mass. Square brackets hold non-standard residues; d marks the D form. Peptide text beside a SMILES is read from it. * marks the point of attachment. Palmitoyl = CCCCCCCCCCCCCCCC(=O)*; Dab = NCC[C@H](N)C(=O)O

Legend:
[1] = Surface tension measurements (critical aggregation concentration); assay type: physicochemical; conditions: Wilhelmy plate method, aqueous solution, 298 K; for Critical aggregation concentration (CAC): surface tension
Experimental: The surface tension was determined in aqueous solution at 298 K by the Wilhelmy plate method using a Force Tensiometer K100 (Krüss, Hamburg, Germany). The results were presented as a function of decimal logarithm of lipopeptide concentration. The critical aggregation concentration (CAC) was defined as the intersection of two straight lines best fitting to data points before and after reaching the CAC point.

[2] = tested on: 46BR.1N human skin fibroblasts cell line; assay type: cell-based
Experimental: (§1) Cytotoxicity was determined towards immortalized human HaCaT keratinocytes (DKFZ, Heidelberg, Germany), transformed human fibroblast cell line 46BR.1N (ECACC), as well as the human melanoma (A375), human lung cancer (A549), human colon cancer (HCT-116), human colon adenocarcinoma (HT-29), and human prostate cancer (LNCaP) cell lines. Keratinocytes and fibroblast cell lines were maintained in a humidified atmosphere with 5% CO2 at 37 °C in a Dulbecco’s modified Eagle’s medium (DMEM) (Sigma-Aldrich, Steinheim, Germany), which contained 4500 mg/L of glucose, 584 mg/L of L-glutamine, sodium pyruvate, and sodium bicarbonate. Additionally, the medium was supplemented with 10% of fetal bovine serum (FBS) (Sigma-Aldrich, Steinheim, Germany), 100 U/mL of penicillin, and 100 µg/mL of streptomycin (Sigma-Aldrich, Steinheim, Germany). The cells were grown in culture dishes (BD, Franklin Lakes, NJ, USA) and the medium was changed every 2 days. Afterwards, the fibroblasts and keratinocytes were harvested using a standard trypsin-EDTA solution, centrifuged, suspended in a medium supplemented with 10% FBS and seeded at a density of 5500–6000 cells per well into 96-well plates. After 24 h, the medium was exchanged with a serum- and antibiotic-free DMEM. The next day, serially diluted solutions of the lipopeptides prepared in a fresh FBS- and antibiotic-free medium were added to the wells. The potential cytotoxic effect of the compounds was analyzed over the concentration range of 1–25 µg/mL. After addition of the lipopeptides, cells were incubated for the next 24 h. At the end of the experiment, the cells were treated with 20 µL of MTT (5 mg/mL in PBS). After 3 h at 37 °C under 5% CO2, the medium was discarded and replaced by 6 mM HCl in isopropanol. As soon as the purple crystals of formazan were completely solubilized, absorbance was read at 570 nm with a plate reader. The optical density of the wells without the tested compounds were regarded as the positive control. The MTT assay was performed in triplicate for each cell line.
(§2) Determination of the half-maximum inhibitory concentrations (IC50) was done using GraphPad Prism 5 software (San Diego, CA, USA) based on the dose-response curves. The logarithm of the different concentrations of compounds was plotted against the percentage of inhibition in cell viability as compared with control probes, treated as 100%.

[3] = tested on: HaCaT human keratinocyte cell line; assay type: cell-based
Experimental: as §1, §2

[4] = tested on: A375 human malignant melanoma cell line; assay type: cell-based
Experimental: (§3) In the case of evaluation of cytotoxicity towards different types of the cancer cell lines (A375, A549, HCT-116, HT-29, and LNCaP, respective cells were seeded in 96-well plates (4500 cell/well) in the RPMI-1640 medium supplemented with 5% FBS without antibiotics and incubated for 24 h before stimulation with the lipopeptides. The next day, the cells were exposed to the effect of the serially diluted compounds added at concentrations ranging from 1 to 25 µg/mL for a period of 48 h. After the treatment, cells viability was evaluated by means of MTT assays, according to standard protocol, as just described. The experiment was repeated three times for each cell line.
as §2

[5] = tested on: A549 human epithelial lung carcinoma; assay type: cell-based
Experimental: as §3, §2

[6] = tested on: LNCaP human prostate carcinoma; assay type: cell-based
Experimental: as §3, §2

[7] = tested on: HCT-116 human colorectal carcinoma; assay type: cell-based
Experimental: as §3, §2

[8] = tested on: HT-29 human colorectal adenocarcinoma; assay type: cell-based
Experimental: as §3, §2

[9] = tested on: MCF-7 breast cancer cell line; assay type: cell-based, human
[10] = Analytical RP-HPLC retention time as measure of hydrophobicity; assay type: physicochemical; conditions: Jupiter 4 µ Proteo 90 Å 250 x 4.60 mm, linear gradient 15-90% B in A in 30 min, 1 ml/min, A 0.1% aqueous TFA, B 80% acetonitrile in water with 0.1% TFA
Experimental: The lipopeptides were purified in a Waters RP-HPLC preparative system (Jupiter 4 µ Proteo column, 90 Å, 250 × 10 mm) with the linear gradient of solution B in A from 30% to 60% (A, 0.1% solution of TFA in water and B, 80% solution of ACN in water containing 0.1% of TFA) in 40 min with a flow rate of 5 mL/min. Final purity of the analogues (at least 97%) was determined using an analytical RP-HPLC Shimadzu system (Jupiter 4 µ Proteo column, 90 Å, 250 × 4.60 mm) with the linear gradient of solution B in A from 15% to 90% in 30 min with a flow rate of 1 mL/min. Identity of lipopeptides was confirmed by MALDI-TOF mass spectrometry. Analytical data of the synthesized analogues are presented in Table S1 (Supplementary Materials). ^a linear gradient 15-90% of B in A for 30 min, flow rate 1 ml/min, RP-HPLC Shimadzu system, column: Jupiter 4 µ Proteo, 90 Å, 250 x 4.60 mm; A – 0.1% aqueous TFA solution, B – 80% solution of acetonitrile in water with 0.1% of TFA; ^b molecular masses were determined using MALDI-TOF mass spectrometer.

[11] = intersection of two fitted lines

| γCAC, surface tension at the CAC point [1] [mN/m] | Critical aggregation concentration (CAC) [1] [mg/mL] | Critical aggregation concentration (CAC) [1, 11] [mM] | SMILES | IC50, 46BR.1N (24h) [2] [µg/mL] | IC50, HaCaT (24h) [3] [µg/mL] | IC50, A375 (48h) [4] [µg/mL] | IC50, A549 (48h) [5] [µg/mL] | IC50, LNCaP (48h) [6] [µg/mL] | IC50, HCT-116 (48h) [7] [µg/mL] | IC50, HT-29 (48h) [8] [µg/mL] | IC50, MCF-7 (48h) [9] [µg/mL] | Retention time (used as measure of hydrophobicity) [10] [min] |
| --- | --- | --- | --- | --- | --- | --- | --- | --- | --- | --- | --- | --- |
| – | – | – | CCCCCCCCCCCCCCCC(=O)NCCCC[C@H](NC(=O)[C@H](CCCCN)NC(=O)[C@@H](N)CCCCN)C(=O)N[C@@H](CCCCN)C(=O)N[C@@H](CCCCN)C(N)=O [KK(KC16)KK-NH2] (H-KKK(Palmitoyl)KK-NH2) | 7.56 ± 1.31 (≈ 8.43 µM) | 11.92 ± 1.57 (≈ 13.3 µM) | >25 | >25 | >25 | 15.98 ± 0.16 (≈ 17.8 µM) | 18.98 ± 0.38 (≈ 21.2 µM) | >25 | 21.745 |
| 39.8 | 4.0 | 6.6 | CCCCCCCCCCCCCCCC(=O)NCC[C@H](NC(=O)[C@@H](N)CCCCN)C(=O)N[C@@H](CCCCN)C(N)=O [K(DabC16)K-NH2] (H-Lys-[Dab](Palmitoyl)-Lys-NH2) | 9.76 ± 0.70 (≈ 15.9 µM) | 7.96 ± 2.49 (≈ 13 µM) | 11.99 ± 0.38 (≈ 19.6 µM) | >25 | 14.3 ± 0.45 (≈ 23.4 µM) | 16.79 ± 0.34 (≈ 27.4 µM) | 21.56 ± 0.22 (≈ 35.2 µM) | 16.28 ± 1.02 (≈ 26.6 µM) | 23.974 |
| 43.0 | 3.5 | 5.4 | CCCCCCCCCCCCCCCC(=O)NCCCC[C@H](NC(=O)[C@@H](N)CCCCN)C(=O)N[C@@H](CCCCN)C(N)=O [K(KC16)K-NH2] | 9.36 ± 2.31 (≈ 14.6 µM) | 9.08 ± 2.28 (≈ 14.2 µM) | 20.34 ± 1.47 (≈ 31.8 µM) | >25 | >25 | 20.72 ± 0.62 (≈ 32.4 µM) | 21.97 ± 1.10 (≈ 34.3 µM) | 22.71 ± 0.79 (≈ 35.5 µM) | 24.731 |

| SMILES | γCAC, surface tension at the CAC point [1] [mN/m] | Critical aggregation concentration (CAC) [1] [mg/mL] | Critical aggregation concentration (CAC) [1, 11] [mM] | IC50, 46BR.1N (24h) [2] [µg/mL] | IC50, HaCaT (24h) [3] [µg/mL] | IC50, A375 (48h) [4] [µg/mL] | IC50, A549 (48h) [5] [µg/mL] | IC50, LNCaP (48h) [6] [µg/mL] | IC50, HCT-116 (48h) [7] [µg/mL] | IC50, HT-29 (48h) [8] [µg/mL] | IC50, MCF-7 (48h) [9] [µg/mL] | Retention time (used as measure of hydrophobicity) [10] [min] |
| --- | --- | --- | --- | --- | --- | --- | --- | --- | --- | --- | --- | --- |
| CCCCCCCCCCCCCCCC(=O)NCCC[C@H](NC(=O)[C@@H](N)CCCCN)C(=O)N[C@@H](CCCCN)C(N)=O [K(OC16)K-NH2] | 39.2 | 3.7 | 5.9 | 9.02 ± 0.69 (≈ 14.4 µM) | 6.25 ± 3.08 (≈ 9.98 µM) | 21.60 ± 0.76 (≈ 34.5 µM) | >25 | >25 | 18.07 ± 0.54 (≈ 28.9 µM) | 20.51 ± 0.41 (≈ 32.8 µM) | 15.47 ± 1.04 (≈ 24.7 µM) | 24.204 |
